The source of these data is US7294715B2, “Aporphine and oxoaporphine compounds and pharmaceutical use thereof” (Lotus Pharmaceutical Co., Ltd., priority 2003, dated 2007).

Data set [1] deals with regional myocardial ischemia and reperfusion (LAD occlusion). Briefly: Infarct size in a rat model of regional myocardial ischemia and reperfusion. In kind it is in vivo. The following applies: iv. Here is the method: Seventy two male Wistar rats (215-300 g, Charles River, Margate, U.K.) were anaesthetized with thiopentone sodium (Intraval®, 120 mg/kg i.p.; Rhone-Merrieux, Essex, U.K.). The rats were tracheotomised and ventilated with a Harvard ventilator (70 strokes/min, tidal volume: 8-10 ml/kg, inspiratory oxygen concentration: 30%). Body temperature was maintained at 38±1° C. The right carotid artery was cannulated and connected to a pressure transducer (MLT 844, AD Instruments Ltd, Hastings, UK) to monitor mean arterial blood pressure and heart rate, which were continuously recorded on a data acquisition system (Powerlab® Version 4.0.4, AD Instruments, Hastings, UK) installed on a Dell Dimension 4100 personal computer, throughout the experiment. The right jugular vein was cannulated for the administration of test compound and Evans Blue dye (at the end of the experiment). A parasternal thoracotomy was performed, the heart was suspended in a temporary pericardial cradle and a snare occluder was placed around the left anterior descending coronary artery (LAD). After completion of the surgical procedure the animals were allowed to stabilize for 30 min before LAD ligation. The coronary artery was occluded at time 0 by tightening of the occluder. After 25 min of acute myocardial ischemia, the occluder was released to allow reperfusion for 2 h.
The test compounds were administered as a slow intravenous injection (i.v.) 5 min prior to the onset of reperfusion of the ischemic heart. Following the 2 h reperfusion period, the coronary artery was re-occluded and Evans Blue dye (1 ml of 2% w/v) was injected into the left ventricle, via the right jugular vein cannula, to distinguish between perfused and non-perfused (AAR) sections of the heart. The Evans Blue solution stains the perfused myocardium, while the occluded vascular bed remains uncolored. The animals were sacrificed with an overdose of anesthetic and the heart excised. The heart was sectioned into slices of 3-4 mm thick, the right ventricular wall was removed, and the AAR (pink) was separated from the non-ischemic (blue) area. […]

The test system of another data set is eNOS. Briefly: Western blot analysis for eNOS protein in ischemia-reperfusion rat heart. In kind it is in vivo. The following applies: ischemia 25 min, reperfusion 2 h, 1.5 mg/kg at 5 min prior to reperfusion, P<0.05 vs vehicle. Here is the method:
To elucidate the effects of the test compounds on the infarct size caused by regional myocardial ischemia and reperfusion, all animals were randomized into 8 study groups. The first group (Sham) comprised of animals not subjected to regional myocardial ischemia (25 min) followed by reperfusion (2 h) and treated with vehicle (1 ml/kg) 5 minutes prior to the onset of reperfusion. The second group of animals were subjected to regional myocardial ischemia (25 min) followed by reperfusion (2 h) and were treated with vehicle (saline, 1 ml/kg). […]
Hearts were pulverized at −80° C. using liquid nitrogen and a stainless steel pestle and mortar. […] Total protein concentrations were determined using the Bradford method (Bio-Rad, UK). […] Signals were detected using the enhanced chemiluminescence (ECL™) detection system (Cell Signaling Technology, U.S.A.) and autoradiographic film. For quantification of protein expression all blots were reprobed for muscle α-actin expression using 1/2000 dilution of a mouse anti-human actin (muscle antibody (Serotec), followed by incubation with a goat anti-mouse HRP linked secondary antibody ( 1/2000 dilution) (DakoCytomation, Denmark). Densitometry analysis was performed on scanned images (Hewlett Packard Scanjet) and analyzed using Scion Image (Scion Corp, National Institutes of Health, Bethesda, Md.).
(A western blot detects proteins with antibodies after separation by electrophoresis.)

A short description of data set [2]: Safety at multiples of the effective dose in rabbits. The settings on record: 10-100 times the effective dose.

`COc1cc2c(cc1OC)-c1c(OC)c(OC)cc3c1C(C2)N(CCOc1ccccc1OC)CC3` (stereo not shown) [Compound 16, N-[2-(2-methoxyphenoxyl)]ethylnorglaucine]: the values for the infarct size in data set [1] (0.5 mg/kg) and in data set [1] (1.5 mg/kg) were 47±4 % of the area at risk and 47±2 % of the area at risk, respectively. Besides, in the data set on eNOS, the “reduction in eNOS protein expression caused by ischemia and reperfusion” value is reported as “significantly reduced”. Moreover, the animal deaths result in data set [2] was “no animals died”.
